The results in this text go back to patent US6545148B2, “Process for preparing certain substituted caprolactams” (Novartis AG, priority 2001, dated 2003).

The data set is described as follows: H2O solubility of the chromatographed white solid. The note with it: white solid after chromatography (2% methanol-CH2Cl2), before preparative hplc purification. Format: physicochemical. On the procedure:
To a stirred solution of trifluoroacetic acid (10 ml), tetrahydrofuran (10 ml) and water (5 ml) at 0° C. is added, in one portion, 3.8 g (7.1 mmol) of the compound prepared in a) above. The reaction is stirred at 0° C. for 30 minutes, concentrated via rotary evaporation (bath temperature <20° C), mixed with saturated NH4HCO3 (5 mL) and stirred for 15 minutes. […] This material is further purified using preparative hplc (reverse phase eluted with 90% CH3CN-water) to give 2.9 g (82.4%) of the title compound as a white solid, m.p. 79-80° C.

The structures appear in SMILES notation.

`CO[C@@H](C(=O)N[C@H]1CC[C@@H](OC(=O)C2CCCCC2)CNC1=O)[C@H](O)[C@@H](O)[C@H](O)/C=C/C(C)(C)C` [Example 3, (2R, 3R, 4S, 5R, 6E)-3,4,5-trihydroxy-2-methoxy-8,8-dimethyl-N-[(3S,6R) -hexahydro-2-oxo-6-(cyclohexylcorbonyl)oxy-2H-azepin-3-3-yl]non-6-enamide]: the H2O solubility is 3700 µg/mL.
